Earlier results on two molecules are cited in patent publication US10695439B2, “Pyrrolobenzodiazepine conjugates” (Medimmune Limited, priority 2016, dated 2020).

For data set [1] the following is noted: relative to SG2057, Hartley et al 2012.
For another data set, the system named is human tumour cell lines. Conditions: quoted from 2014 REF impact study.
The test system of data set [2] is human tumour xenograft models. Particulars: quoted from 2014 REF impact study.

With `C=C1C[C@H]2C=Nc3cc(OCCCOc4cc5c(cc4OC)C(=O)N4CC(=C)C[C@H]4C=N5)c(OC)cc3C(=O)N2C1` [SG2000], the “cytotoxicity, times less cytotoxic than SG2057” value in data set [1] is “at least 10 times”.
Take `COc1ccc(C2=CN3C(=O)c4cc(OC)c(OCCCOc5cc6c(cc5OC)C(=O)N5C=C(c7ccc(OC)cc7)C[C@H]5C=N6)cc4N=C[C@@H]3C2)cc1` [SG2202]: the “activity against a range of human tumour cell lines” value with human tumour cell lines was “picomolar/sub-picomolar activity”. The “activity in human tumour xenograft models” value in data set [2] was “curative activity”.
